Measured values from patent publication US20250144067A1, “PERSONALIZED STARVATION THERAPY FOR CANCER” (Faeth Therapeutics, Inc., priority 2021, published 2025).
Counter-ions that a name gives are not always drawn. Numbered stars: 1 amine (or outer) side, 2 acyl side, 3 side chain; on linkers, the order of the positions; unused ones are H or OH. Bridge positions count the residues as written; N and C are the ends. Peptide text beside a SMILES is read from it. X2 = O=C(CCC[*:2])[*:1]

Experiments:
[1] = system: NCI-H292 lung cancer cells; experiment: FDA drug screening, complete media vs cholesterol-free media without statin (TABLE 1); type: cell-based, human; conditions: for Complete: complete media
[2] = system: NCI-H292 lung cancer cells; experiment: FDA drug screening, complete media vs cholesterol-free media with simvastatin (TABLE 2); type: cell-based, human; conditions: for Cholesterol-free media + simvastatin (0.04 μM) / Complete Media: NCI-H292 cells
[3] = NCI-H292 cells, cholesterol-free media without statin
[4] = complete vs cholesterol-free media, greater than 0 enhanced anti-cancer activity, about 0 neutral, below 0 antagonists
[5] = FDA drug library screen, cholesterol-free media with simvastatin 0.04 μM
[6] = FDA drug library screen, complete media
[7] = complete media minus cholesterol-free media + simvastatin, >0 enhanced anti-cancer activity, about 0 neutral, <0 antagonist
[8] = Complete minus Cholesterol-free, […]
[9] = complete media minus cholesterol-free media + simvastatin, […]
[10] = Complete minus Cholesterol-free, >0 enhanced anti-cancer activity, about 0 neutral, <0 antagonist
[11] = cholesterol-free media with simvastatin 0.04 μM, FDA drug library screen (TABLE 2)
[12] = complete media minus cholesterol-free media + simvastatin (0.04 μM), >0 enhanced anti-cancer activity, about 0 neutral, <0 antagonist
[13] = NCI-H292 cells, FDA drug library screen, cholesterol-free media without statin
[14] = NCI-H292 cells, FDA drug library screen
[15] = cholesterol-free media with simvastatin 0.04 μM, cell growth value in FDA drug screen
[16] = complete media, cell growth value in FDA drug screen
[17] = Complete minus Cholesterol-free, greater than 0 enhanced anti-cancer activity, about 0 neutral, below 0 antagonist
[18] = complete media vs cholesterol-free media + simvastatin (0.04 μM), […]
[19] = complete media vs cholesterol-free media + simvastatin (0.04 μM), >0 enhanced anti-cancer activity, about 0 neutral, <0 antagonist
[20] = drug in cholesterol-free media with simvastatin 0.04 μM

O=c1[nH]c2ccccc2n1C1CCN(CCCC(c2ccc(F)cc2)c2ccc(F)cc2)CC1 [Pimozide] gave a Cholesterol-free [1, 3] of 1.1, a Complete ([1]; NCI-H292 cells) of 0.6361 and a Difference [1, 4] of −0.46. For the same compound, the “Cholesterol-free media + simvastatin (0.04 μM)” value [2, 5] was 0.8031, the “Complete Media” value [2, 6] was 0.9681 and the Difference [2, 7] was 0.16.
In the case of CC[C@H](C)[C@@H]1NC(=O)[C@H](Cc2ccc(OC)cc2)NC(=O)CCCSC[C@@H](C(=O)N2CCC[C@H]2C(=O)N[C@@H](CC(C)C)C(=O)NCC(N)=O)NC(=O)[C@H](CC(N)=O)NC(=O)[C@H](CCC(N)=O)NC1=O [Carbetocin] (Y(Me)IQNCPLG-NH2; linker N-5 via X2), the Difference [1, 8] is reported as −0.26, the Cholesterol-free [1, 3] is reported as 1.283 and the Complete ([1]; NCI-H292 cells) is reported as 1.021. The “Cholesterol-free media + simvastatin (0.04 μM)” value [2, 5] was 1.6, the “Complete Media” value [2, 6] was 1.76 and the Difference [2, 9] was 0.16.
For O=C(O)c1cc(/N=N/c2ccc(O)c(C(=O)O)c2)ccc1O [Olsalazine (Disodium)], the Difference [1, 10] was −0.25, the Cholesterol-free [1, 3] was 1.211 and the Complete ([1]; NCI-H292 cells) was 0.9604. For the same compound, the “Cholesterol-free media + simvastatin (0.04 μM)” value [2, 11] was 1.218 and the Difference [2, 12] was −0.07.
For COc1ccccc1OC(=O)c1ccccc1OC(C)=O [Guacetisal], the Difference [1, 8] was −0.09, the Cholesterol-free [1, 13] was 0.837 and the Complete [1, 14] was 0.7434. For the same compound, the “Cholesterol-free media + simvastatin (0.04 μM)” value ([2]; cholesterol-free media with simvastatin 0.04 μM, […]) was 1.34, the “Complete Media” value ([2]; complete media, […]) was 1.4 and the Difference [2, 9] was 0.06.
For NNc1nncc2ccccc12 [Hydralazine (hydrochloride)], the Cholesterol-free [1, 3] was 1.529, the Complete ([1]; NCI-H292 cells) was 1.081 and the Difference [1, 4] was −0.45. The “Cholesterol-free media + simvastatin (0.04 μM)” value [2, 15] was 1.049, the “Complete Media” value [2, 16] was 1.113 and the Difference [2, 7] was 0.06.
With CC(=O)OC(C)C[N+](C)(C)C.[Cl-] (stereo not shown) [Methacholine (chloride)] the Difference [1, 17] was −0.15, the Cholesterol-free [1, 13] was 1.05 and the Complete [1, 14] was 0.8971. The “Cholesterol-free media + simvastatin (0.04 μM)” value [2, 11] was 1.245, the “Complete Media” value ([2]; complete media, FDA drug library screen (TABLE 2)) was 1.195 and the Difference [2, 12] was −0.05.
With Osimertinib mesylate the Difference [1, 8] was −0.14, the Cholesterol-free [1, 13] was 0.3436 and the Complete [1, 14] was 0.1992. The “Cholesterol-free media + simvastatin (0.04 μM)” value [2, 5] was 0.3874, the “Complete Media” value [2, 6] was 0.2672 and the Difference [2, 18] was −0.12.
In the case of Cc1cccc(C)c1OCC(C)N (stereo not shown) [Mexiletine (hydrochloride)], the Difference [1, 10] is reported as −0.20, the Cholesterol-free [1, 3] is reported as 1.086 and the Complete ([1]; NCI-H292 cells) is reported as 0.8848. For the same compound, the “Cholesterol-free media + simvastatin (0.04 μM)” value [2, 5] was 1.005, the “Complete Media” value [2, 6] was 0.8858 and the Difference [2, 19] was −0.12.
In the case of Flupirtine (Maleate), the Difference ([1]; Complete minus Cholesterol-free, greater than 0 enhanced anti-cancer activity, about 0 neutral, below 0 antagonists) is reported as −0.56, the Cholesterol-free ([1]; NCI-H292 cells in cholesterol-free media without statin) is reported as 1.589 and the “Cholesterol-free media + simvastatin (0.04 μM)” value [2, 15] is reported as 0.9024. For the same compound, the “Complete Media” value [2, 16] was 0.9412 and the Difference [2, 7] was 0.04.
O=C(O)CCCc1ccccc1 [4-Phenylbutyric acid] showed a Difference [1, 17] of −0.13, a Cholesterol-free [1, 13] of 1.208 and a Complete [1, 14] of 1.079. For the same compound, the “Cholesterol-free media + simvastatin (0.04 μM)” value [2, 20] was 1.251, the “Complete Media” value ([2]; drug in complete media) was 1.056 and the Difference [2, 19] was −0.19.
Nc1ccc(S(N)(=O)=O)cc1 [Sulfanilamide] gave a Cholesterol-free [1, 3] of 1.317, a Complete ([1]; NCI-H292 cells) of 1.005 and a Difference [1, 4] of −0.31. For the same compound, the “Cholesterol-free media + simvastatin (0.04 μM)” value ([2]; FDA library drug in cholesterol-free media with simvastatin 0.04 μM) was 1.221, the “Complete Media” value ([2]; FDA library drug in complete media) was 0.9133 and the Difference [2, 19] was −0.31.
O[C@H]([C@H](O)[C@@H]1CO1)[C@H]1CO1 [VAL-083] gave a Cholesterol-free [1, 3] of 1.036, a Complete ([1]; NCI-H292 cells) of 0.6339 and a Difference ([1]; complete vs cholesterol-free media, […]) of −0.40. The “Cholesterol-free media + simvastatin (0.04 μM)” value [2, 20] was 0.879, the “Complete Media” value ([2]; drug in complete media) was 0.7017 and the Difference [2, 18] was −0.18.
